Measured values from publication PMC7395068, “The evolution of strategies to minimise the risk of human drug-induced liver injury (DILI) in drug discovery and development” (Archives of Toxicology, 2020).
Where two headings read alike, the source gives them in different places.

Assays:
[1] = system: HepG2 C3A spheroid, BSEP, Glu/Gal in HepG2 cells, bioactivation; settings: cited from earlier work; for Bayesian Machine Learning: In vitro Assay, ref Williams 2019; for Bayesian Machine Learning DILI prediction, Williams (2019): Bayesian modeling, ref Williams et al. 2019
[2] = system: THLE or HepG2 cells, isolated mitochondria, BSEP; settings: cited from earlier work; for Partition Hybrid HRM Score / Ro2 Hybrid HRM Score: In vitro Assay, ref Aleo 2019; for Partition Hybrid HRM Score ≥4, Aleo (2019) / Partition Hybrid HRM Score ≥8, Aleo (2019) / Rule of Two hybrid HRM Score ≥3, Aleo (2019) / Rule of Two hybrid HRM Score ≥8, Aleo (2019): Modeled in vitro assays (cytotoxicity, mitochondrial dysfunction, BSEP), ref Aleo et al. 2019
[3] = plasma free fraction; cited from earlier work
hLiMTs [4] = assay: Combined HCI (HCS) and cellular ATP 3D assay in hLiMTs; settings: for DILI prediction hLiMTs (HCS-MEC): Microtissue model structural based (HCI), combined HCS and ATP, MEC < 25 × Cmax.tot cut-off; for hLiMTs <25x Avg Cmax ATP / hLiMTs <100x Avg Cmaxu ATP: ATP endpoint; for hLiMTs <25x Avg Cmax ATP / hLiMTs <25x Avg Cmax HCS / hLiMTs <25x Avg Cmax All: cut-off <25x Avg Cmax; for hLiMTs <100x Avg Cmaxu ATP / hLiMTs <100x Avg Cmaxu HCS / hLiMTs <100x Avg Cmaxu All: cut-off <100x Avg Cmaxu; for hLiMTs <25x Avg Cmax HCS / hLiMTs <100x Avg Cmaxu HCS: HCS endpoints; for hLiMTs <25x Avg Cmax All: all endpoints (ATP and HCS); for hLiMTs Cmax max All / hLiMTs Cmax min All / hLiMTs <10 uM All / hLiMTs <100x Avg Cmaxu All: all endpoints; for hLiMTs Cmax max All: Cmax max used; for hLiMTs Cmax min All: Cmax min used; for hLiMTs <10 uM All: cut-off <10 uM
[5] = read-out: Human plasma Cmax; total plasma Cmax.tot, median of 9 literature references; cited from earlier work
HepaRG spheroids = assay: Combined HCI (HCS) and cellular ATP 3D assay in HepaRG spheroids; settings: for HepaRG <25x Avg Cmax ATP / HepaRG <100x Avg Cmaxu ATP: ATP endpoint; for HepaRG <25x Avg Cmax ATP / HepaRG <25x Avg Cmax HCS / HepaRG <25x Avg Cmax All: cut-off <25x Avg Cmax; for HepaRG <100x Avg Cmaxu ATP / HepaRG <100x Avg Cmaxu HCS / HepaRG <100x Avg Cmaxu All: cut-off <100x Avg Cmaxu; for HepaRG <25x Avg Cmax HCS / HepaRG <100x Avg Cmaxu HCS: HCS endpoints; for HepaRG <25x Avg Cmax All: all endpoints (ATP and HCS); for HepaRG Cmax max All / HepaRG Cmax min All / HepaRG <10 uM All / HepaRG <100x Avg Cmaxu All: all endpoints; for HepaRG Cmax max All: Cmax max used; for HepaRG Cmax min All: Cmax min used; for HepaRG <10 uM All: cut-off <10 uM; for AC50 / minimal effective concentration: Homo sapiens; for HepaRG <25x Avg Cmax ATP / HepaRG <100x Avg Cmaxu ATP / HepaRG <25x Avg Cmax HCS / HepaRG <100x Avg Cmaxu HCS / HepaRG <25x Avg Cmax All / HepaRG Cmax max All / HepaRG Cmax min All / HepaRG <10 uM All / HepaRG <100x Avg Cmaxu All / AC50 / minimal effective concentration: HepaRG; for DILI prediction HepaRG spheroids (HCS-MEC): Microtissue model structural based (HCI), combined HCS and ATP, MEC < 25 × Cmax.tot cut-off
[6] = Plasma free fraction (fu) and unbound Cmax (Cmax,u); assay type: in vitro ADME, human; settings: unbound plasma Cmax
Experimental: The prediction of DILI severity was evaluated further using the 3D combined HCI assays using plasma-free fraction. The majority of fu values were obtained from literature, when unavailable in-house prediction was utilised. Unbound plasma Cmax concentrations (Cmax,u) were derived by multiplying total plasma Cmax with the corresponding free fraction (fu) for each compound.

hLiMTs [7] = settings: cited from earlier work
[8] = cited from earlier work
[9] = cited from earlier work; remark: listed apart in the source
PHH = settings: cited from earlier work
human hepatocytes = settings: cited from earlier work
[10] = In vitro Assay, ref Proctor 2017

## N[C@@H](Cc1cc(I)c(Oc2ccc(O)c(I)c2)c(I)c1)C(=O)O [liothyronine]
[1]
  Bayesian Machine Learning: -VE
[2]
  Partition Hybrid HRM Score: -VE
  Ro2 Hybrid HRM Score: -VE
  Partition Hybrid HRM Score ≥4, Aleo (2019): -VE
  Partition Hybrid HRM Score ≥8, Aleo (2019): -VE
  Rule of Two hybrid HRM Score ≥3, Aleo (2019): -VE
  Rule of Two hybrid HRM Score ≥8, Aleo (2019): -VE
[3]
  fu: 0.020
hLiMTs [4]
  DILI prediction hLiMTs (HCS-MEC): -VE
  hLiMTs <25x Avg Cmax ATP: -ve
  hLiMTs <100x Avg Cmaxu ATP: -ve
  hLiMTs <25x Avg Cmax HCS: -ve
  hLiMTs <100x Avg Cmaxu HCS: -ve
  hLiMTs <25x Avg Cmax All: -ve
  hLiMTs Cmax max All: -ve
  hLiMTs Cmax min All: -ve
  hLiMTs <10 uM All: -ve
  hLiMTs <100x Avg Cmaxu All: -ve
[5]
  Cmax: 2 nM
HepaRG spheroids
  HepaRG <25x Avg Cmax ATP: -ve
  HepaRG <100x Avg Cmaxu ATP: -ve
  HepaRG <25x Avg Cmax HCS: -ve
  HepaRG <100x Avg Cmaxu HCS: -ve
  HepaRG <25x Avg Cmax All: -ve
  HepaRG Cmax max All: -ve
  HepaRG Cmax min All: -ve
  HepaRG <10 uM All: +ve (<10 uM)
  HepaRG <100x Avg Cmaxu All: -ve
  DILI prediction HepaRG spheroids (HCS-MEC): -VE
HepaRG spheroids; read-out: ATP endpoint AC50
  AC50: 30.5 µM
HepaRG spheroids; read-out: ATP endpoint MEC
  minimal effective concentration: 11.5 µM
HepaRG spheroids; read-out: HCS endpoint AC50
  AC50: 82.8 µM
HepaRG spheroids; read-out: HCS endpoint MEC
  minimal effective concentration: 4.14 µM
[6]
  Human plasma Cmax,u: 0.05 nM

## CNC1(C)C2CCC(C2)C1(C)C (stereo not shown) [mecamylamine]
hLiMTs [7]; [10]
  hLiMTs ATP <100uM: -VE
hLiMTs [7]; hLiMTs, ATP, IC50 < 100 × Cmax.tot, ref Proctor et al. 2017
  hLiMTs/100xCmax, Proctor (2017): -VE
hLiMTs [7]; hLiMTs, ATP, IC50 threshold 100 µM, ref Proctor et al. 2017
  hLiMTs/100uM, Proctor (2017): -VE
[8]; LTKB DILIrank category, ref Chen et al. 2016
  DILI severity category (Chen et al. [2016]): No
[8]; human DILI classification, LTKB DILIrank, ref Chen et al. 2016
  DILI severity category (Chen 2016): No
[8]; human DILI severity, ref Chen et al.
  DILI severity category: No
[8]; ref Chen 2016
  DILI +VE (5-8), DILI -VE (-4): -VE
  DILI severity category: vNo-DILI-Concern
[1]
  Bayesian Machine Learning DILI prediction, Williams (2019): -VE
  Bayesian Machine Learning: -VE
[3]
  fu: 0.600
hLiMTs [4]
  DILI prediction hLiMTs (HCS-MEC): -VE
  hLiMTs <25x Avg Cmax ATP: -ve
  hLiMTs <100x Avg Cmaxu ATP: -ve
  hLiMTs <25x Avg Cmax HCS: -ve
  hLiMTs <100x Avg Cmaxu HCS: -ve
  hLiMTs <25x Avg Cmax All: -ve
  hLiMTs Cmax max All: -ve
  hLiMTs Cmax min All: -ve
  hLiMTs <10 uM All: -ve
  hLiMTs <100x Avg Cmaxu All: -ve
[5]
  Cmax: 142 nM
HepaRG spheroids
  HepaRG <25x Avg Cmax ATP: -ve
  HepaRG <100x Avg Cmaxu ATP: -ve
  HepaRG <25x Avg Cmax HCS: -ve
  HepaRG <100x Avg Cmaxu HCS: -ve
  HepaRG <25x Avg Cmax All: -ve
  HepaRG Cmax max All: -ve
  HepaRG Cmax min All: -ve
  HepaRG <10 uM All: -ve
  HepaRG <100x Avg Cmaxu All: -ve
  DILI prediction HepaRG spheroids (HCS-MEC): -VE
HepaRG spheroids; read-out: HCS endpoint MEC
  minimal effective concentration: 12.2 µM
[9]; Chen et al. 2016 or literature alignment, ref Chen et al. 2016
  Assigned DILI category: 1
[9]; […]
  In vivo DILI: -VE
[9]; ref Proctor 2017
  In vivo DILI: -VE
[9]; ref Williams 2019
  In vivo DILI: -VE
[6]
  Human plasma Cmax,u: 85 nM
PHH; 2D PHH, ATP, IC50 < 100 × Cmax.tot, ref Proctor et al. 2017
  PHH/100xCmax, Proctor (2017): -VE
PHH; 2D PHH, ATP, IC50 threshold 100 µM, ref Proctor et al. 2017
  PHH/100uM, Proctor (2017): -VE
PHH; [10]
  PHH ATP <100uM: -VE

## Cc1ccc(N(CC2=NCCN2)c2cccc(O)c2)cc1 [phentolamine]
Human hepatocytes; In vitro Assay, ref Xu 2008
  Structural based (HCI): -VE
Human hepatocytes; Structural based (HCI), human hepatocytes, ref Xu et al. 2008
  DILI in vitro assay prediction, Xu (2008): -VE
[1]
  Bayesian Machine Learning DILI prediction, Williams (2019): -VE
[2]
  Partition Hybrid HRM Score: -VE
  Ro2 Hybrid HRM Score: -VE
  Partition Hybrid HRM Score ≥4, Aleo (2019): -VE
  Partition Hybrid HRM Score ≥8, Aleo (2019): -VE
  Rule of Two hybrid HRM Score ≥3, Aleo (2019): -VE
  Rule of Two hybrid HRM Score ≥8, Aleo (2019): -VE
[3]
  fu: 0.460
hLiMTs [4]; Homo sapiens, read-out: HCS endpoint MEC
  minimal effective concentration: 87.4 µM
hLiMTs [4]
  DILI prediction hLiMTs (HCS-MEC): -VE
  hLiMTs <25x Avg Cmax ATP: -ve
  hLiMTs <100x Avg Cmaxu ATP: -ve
  hLiMTs <25x Avg Cmax HCS: -ve
  hLiMTs <100x Avg Cmaxu HCS: -ve
  hLiMTs <25x Avg Cmax All: -ve
  hLiMTs Cmax max All: -ve
  hLiMTs Cmax min All: -ve
  hLiMTs <10 uM All: -ve
  hLiMTs <100x Avg Cmaxu All: -ve
[5]
  Cmax: 75 nM
HepaRG spheroids
  HepaRG <25x Avg Cmax ATP: -ve
  HepaRG <100x Avg Cmaxu ATP: -ve
  HepaRG <25x Avg Cmax HCS: -ve
  HepaRG <100x Avg Cmaxu HCS: -ve
  HepaRG <25x Avg Cmax All: -ve
  HepaRG Cmax max All: -ve
  HepaRG Cmax min All: -ve
  HepaRG <10 uM All: -ve
  HepaRG <100x Avg Cmaxu All: -ve
  DILI prediction HepaRG spheroids (HCS-MEC): -VE
HepaRG spheroids; read-out: ATP endpoint AC50
  AC50: 35.2 µM
HepaRG spheroids; read-out: ATP endpoint MEC
  minimal effective concentration: 29.3 µM
HepaRG spheroids; read-out: HCS endpoint AC50
  AC50: 63 µM
HepaRG spheroids; read-out: HCS endpoint MEC
  minimal effective concentration: 18.1 µM
[6]
  Human plasma Cmax,u: 34 nM
